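Assay format: 96-well plates, 48-hour exposure. Abbreviation: GI50, concentration required for 50% inhibition of growth.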 Activity calls are given as the source filed them. Cut-off read from the data, not from the text of the source: active = GI50 up to about 1.1 µM and inactive = higher.
Tests used:
Test in all cases: NCI tumour cell line growth inhibition, 48 h
A498 = system: A498
A549 = system: A549
ACHN = system: ACHN
CAKI-1 = system: CAKI-1
CCRF-CEM = system: CCRF-CEM
COLO 205 = system: COLO 205
DU-145 = system: DU-145
EKVX = system: EKVX
HCC 2998 = system: HCC 2998
HCT-15 = system: HCT-15
HL-60 = system: HL-60
HOP-62 = system: HOP-62
HOP-92 = system: HOP-92
Hs-578T = system: Hs-578T
IGROV-1 = system: IGROV-1
K562 = system: K562
KM12 = system: KM12
LOX IMVI = system: LOX IMVI
M14 = system: M14
MCF7 = system: MCF7
MDA-MB-231 = system: MDA-MB-231
MDA-MB-435 = system: MDA-MB-435
MDA-N = system: MDA-N
Malme-3M = system: Malme-3M
NCI-H226 = system: NCI-H226
NCI-H23 = system: NCI-H23
NCI-H460 = system: NCI-H460
NCI-H522 = system: NCI-H522
NCI/ADR-RES = system: NCI/ADR-RES
OVCAR-3 = system: OVCAR-3
OVCAR-5 = system: OVCAR-5
OVCAR-8 = system: OVCAR-8
PC-3 = system: PC-3
RPMI-8226 = system: RPMI-8226
RXF 393 = system: RXF 393
SF-268 = system: SF-268
SF-539 = system: SF-539
SK-MEL-28 = system: SK-MEL-28
SK-MEL-2 = system: SK-MEL-2
SK-MEL-5 = system: SK-MEL-5
SN12C = system: SN12C
SNB-19 = system: SNB-19
SNB-75 = system: SNB-75
SR = system: SR
SW-620 = system: SW-620
T47D = system: T47D
TK-10 = system: TK-10
U-251 = system: U-251
UACC-257 = system: UACC-257
UO-31 = system: UO-31
786-0 = system: 786-0
BT-549 = system: BT-549
HCT-116 = system: HCT-116
MOLT-4 = system: MOLT-4
SF-295 = system: SF-295
UACC-62 = system: UACC-62
OVCAR-4 = system: OVCAR-4
SK-OV-3 = system: SK-OV-3

Measured: GI50

O=c1cnn(C/C=C\CO)c(=O)[nH]1
> 100 µM: HCT-15
inactive: A498 > 100 µM | A549 > 100 µM | ACHN > 100 µM | CAKI-1 > 100 µM | CCRF-CEM > 100 µM | COLO 205 > 100 µM | DU-145 > 100 µM | EKVX > 100 µM | HCC 2998 > 100 µM | HL-60 > 100 µM | HOP-62 > 100 µM | HOP-92 > 100 µM | Hs-578T > 100 µM | IGROV-1 > 100 µM | K562 > 100 µM | KM12 > 100 µM | LOX IMVI > 100 µM | M14 > 100 µM | MCF7 > 100 µM | MDA-MB-231 > 100 µM | MDA-MB-435 > 100 µM | MDA-N > 100 µM | Malme-3M > 100 µM | NCI-H226 > 100 µM | NCI-H23 > 100 µM | NCI-H460 > 100 µM | NCI-H522 > 100 µM | NCI/ADR-RES > 100 µM | OVCAR-3 > 100 µM | OVCAR-5 > 100 µM | OVCAR-8 > 100 µM | PC-3 > 100 µM | RPMI-8226 > 100 µM | RXF 393 > 100 µM | SF-268 > 100 µM | SF-539 > 100 µM | SK-MEL-28 > 100 µM | SK-MEL-2 > 100 µM | SK-MEL-5 > 100 µM | SN12C > 100 µM | SNB-19 > 100 µM | SNB-75 > 100 µM | SR > 100 µM | SW-620 > 100 µM | T47D > 100 µM | TK-10 75.2 µM | U-251 > 100 µM | UACC-257 > 100 µM | UO-31 > 100 µM

Cc1ccc(Cl)c2c(=O)c3ccc([N+](=O)[O-])cc3sc12
inactive: 786-0 > 100 µM | A549 > 100 µM | ACHN > 100 µM | BT-549 > 100 µM | CAKI-1 > 100 µM | COLO 205 > 100 µM | DU-145 > 100 µM | HCT-116 > 100 µM | HOP-62 79.8 µM | K562 > 100 µM | KM12 > 100 µM | MCF7 > 100 µM | MDA-N > 100 µM | MOLT-4 > 100 µM | NCI-H23 > 100 µM | OVCAR-3 > 100 µM | OVCAR-5 > 100 µM | OVCAR-8 > 100 µM | PC-3 > 100 µM | RPMI-8226 > 100 µM | SF-295 82.2 µM | SK-MEL-2 > 100 µM | SK-MEL-5 > 100 µM | SNB-19 > 100 µM | UACC-257 > 100 µM | UACC-62 > 100 µM | UO-31 > 100 µM
> 100 µM: HCT-15

CC(=O)C(=CNc1c(C)n(C)n(-c2ccccc2)c1=O)C(C)=O
> 100 µM: HCT-15
inactive: 786-0 > 100 µM | A498 > 100 µM | A549 > 100 µM | ACHN > 100 µM | BT-549 > 100 µM | CAKI-1 > 100 µM | CCRF-CEM > 100 µM | COLO 205 > 100 µM | DU-145 > 100 µM | EKVX > 100 µM | HCC 2998 > 100 µM | HCT-116 > 100 µM | HL-60 > 100 µM | HOP-92 > 100 µM | IGROV-1 > 100 µM | K562 > 100 µM | KM12 > 100 µM | LOX IMVI > 100 µM | M14 > 100 µM | MCF7 > 100 µM | MDA-MB-231 > 100 µM | MDA-MB-435 > 100 µM | MOLT-4 > 100 µM | Malme-3M > 100 µM | NCI-H226 > 100 µM | NCI-H23 > 100 µM | NCI-H522 > 100 µM | NCI/ADR-RES > 100 µM | OVCAR-3 > 100 µM | OVCAR-4 > 100 µM | OVCAR-5 > 100 µM | OVCAR-8 > 100 µM | PC-3 > 100 µM | RPMI-8226 > 100 µM | RXF 393 > 100 µM | SF-295 > 100 µM | SF-539 > 100 µM | SK-MEL-2 > 100 µM | SK-MEL-5 > 100 µM | SK-OV-3 > 100 µM | SN12C > 100 µM | SNB-19 > 100 µM | SNB-75 > 100 µM | SR > 100 µM | SW-620 > 100 µM | TK-10 > 100 µM | U-251 > 100 µM | UACC-257 > 100 µM | UACC-62 > 100 µM | UO-31 > 100 µM

Source: ChEMBL document CHEMBL1201862, “PubChem BioAssay data set” (2004)
